In patent publication US4582827A, “Pesticidal diphenylaziridines” (priority 1983, dated 1986):

Assays:
[1] = system: Salmonella typhimurium strains TA 98, TA 100, TA 1535, TA 1537, TA 1538, TA 1978; assay: Ames assay (spot test), revertant colonies; assay type: cell-based; details: for Mean number of revertant colonies per plate, TA 98 +S9: strain TA 98, +S9; for Mean number of revertant colonies per plate, TA 98 -S9: strain TA 98, -S9; for Mean number of revertant colonies per plate, TA 100 +S9: strain TA 100, +S9; for Mean number of revertant colonies per plate, TA 100 -S9: strain TA 100, -S9; for Mean number of revertant colonies per plate, TA 1535 +S9: strain TA 1535, +S9; for Mean number of revertant colonies per plate, TA 1535 -S9: strain TA 1535, -S9; for Mean number of revertant colonies per plate, TA 1537 +S9: strain TA 1537, +S9; for Mean number of revertant colonies per plate, TA 1537 -S9: strain TA 1537, -S9; for Mean number of revertant colonies per plate, TA 1538 +S9: strain TA 1538, +S9; for Mean number of revertant colonies per plate, TA 1538 -S9: strain TA 1538, -S9; for Mean number of revertant colonies per plate, TA 1978 +S9: strain TA 1978, +S9; for Mean number of revertant colonies per plate, TA 1978 -S9: strain TA 1978, -S9; for mutagenicity: with and without S9 / mammalian liver enzymes
Experimental: This means that aziridine compounds, 1, 10, or 11, will not cause mutations in DNA arising from potential changes in frame shift and/or base pairing. Compounds 1, 10 and 11 were tested for mutagenic properties using the following experimental procedure.
Potential mutagenic and carcinogenic properties of the compounds were evaluated with standard Ames assay procedures (Ames et al, "Mutation Res.", 31, p. 347, 1975). This assay used strains of Salmonella typhimurium selected for sensitivity and specificity in being reverted from a histidine requirement back to prototrophy by a wide variety of mutagens. Potential changes in frameshift were evaluated using strains TA 98, TA 1537 and TA 1538, while changes in base pairing were detected using strains TA 100 and TA 1535. In addition, strain TA 1978 was used, in combination with TA 1538, to evaluate whether the agent killed bacteria by damage to DNA that could be repaired by this strain. Initially, the compounds were screened using the spot test, in which 1000 μgm of material dissolved in 10 μl of DNSO was applied to the middle of the plate.
Dose-response tests were not performed because the results were negative. All the tests were carried out in the presence and absence of an S9 rat liver preparation and contained a positive control (2-acetylaminofluorene,AAF) and a negative control (DMSO).

H. virescens = assay: Incorporation into H. virescens diet; assay type: in vivo, Heliothis virescens; details: as much as 20 mM in diet
Experimental: Compounds 1, 10, 11, 13 and 14 were incorporated into H. virescens diet in the same manner as M. Sexta. Diets containing as much as 20 mM of each compound had little effect on larval development time, pupal weight or time to adult emergence.

[2] = system: tobacco hornworm larvae (newly ecdysed fifth-instar); assay: Topical application to tobacco hornworm larvae; assay type: in vivo, Manduca sexta; details: for larvae killed: within 48 hr
Experimental: The test compounds were dissolved either in acetone or hexane and applied to the integument of the test insect with a micro applicator. Newly ecdysed fifth-instar tobacco hornworm larvae weighing between 1-1.5 g were used and toxicity data were obtained in the same way as previously described.

[3] = system: tobacco hornworm (Manduca sexta) larvae; assay: Tobacco hornworm growth and developmental responses to feeding on diets containing the compounds; assay type: in vivo; details: for oral activity: diet, Example 2; for larval mortality (acute toxicity): in 24-72 hours; for larval mortality (acute toxicity) / time to 100% larval mortality: summary of Tables I and II
Experimental: The compounds produced and described in Example 1 were then tested for pesticidal activity against the tobacco hornworm (Manduca sexta). The screening procedure for these tests began with the larval stage and continued through the pupal and adult stages and finally evaluated egg production. The studies thus permitted the evaluation of the effects of the compounds over several subsequent developmental stages in the total life cycle of the insect, giving estimates of acute toxicity (insecticidalor larvicidal activity) as well as prolonged or delayed effects on development (growth regulation) and reproduction (chemosterilization). The latter are of special importance in conjunction with the integrated pest management approach to insect control.
The test compounds were incorporated into the artificial diet of tobacco hornworm larvae and their subsequent growth and developmental responses were monitored using the following parameters: larval mortality including determination of LD50 values, rate of larval development and weight gain, percent pupation, pupal weight and degree of deformities, percent adult emergence and measures of reproductive capacity such as the number of developed ooctyes, fecundity and fertility. The protocol for the screening tests has been developed over a number of years by Dahlman et al., Comp. Biochem. Physiol. 51A, 33, (1975); Comp. Biochem. Physiol., 52A, 105 (1975); Ent. Exp. et Appl., 22, 123 (1977); Palumbo and D. L. Dahlman, J. Econ. Entomol. 71, 674 (1978); D. L. Dahlman, Ent. Exp. et Appl., 24, 327 (1978).
Each treatment used 15 newly ecdysed fifth-instar larvae. Death of larvae within a few hours to several days of initial exposure was considered to be acute toxicity. However, the compounds may reduce the maximum size attained by larvae and/or may retard growth so that larvae require additional time to attain their maximum size. Developmental parameters subsequent to the feeding stage also may be affected. […] Mortality may occur in the pupal stage or emerging adults may have wrinkled wings or other deformities. The number of eggs produced by treated females may be reduced and/or unfertile. Although acute toxicity is desirable in the control of any insect, the delayed effects which result in poor survival and reduced reproductive capacity are significant factors in the long-range program of pest management systems.
Continuous cultures of M. sexta are maintained according to the procedures of Yamamoto, J. Econ. Entomol., 62, p. 1427 (1969). Ingredients of the diet formulation include sugar, casein, wheat germ oil, cholesterol, salt mixture, yeast, vitamins, antioxidants and fungal inhibitors, such as ascorbic acid, sorbic acid, formaldehyde and methyl-p-benzoate. All are incorporated into a liquid agar base which, when poured into holding pans, solidifies to form an adequate substrate upon which the insect larvae feed. Nearly any test material can be uniformly incorporated into such a diet. Thus, exposure to experimental compounds can be evaluated during all or any part of the larval stage. In addition, chronic or long-term effects in subsequent life stages can also be monitored.
The results from these studies, in which the 1,2-diphenylaziridines of Example 1 were incorporated singly into the diet of M. sexta at a concentration of 5 mM are presented in the following Table I.

mammals = details: cited from earlier work
H. virescens larvae = assay: Topical application to H. virescens larvae; assay type: in vivo, Heliothis virescens; details: within 48 hr

## Clc1ccc(N2CC2c2ccccc2Cl)cc1 (centres unmarked) [Compound 11]
[1]
  Mean number of revertant colonies per plate, TA 98 +S9: 44.7 colonies per plate
  Mean number of revertant colonies per plate, TA 98 -S9: 27.3 colonies per plate
  Mean number of revertant colonies per plate, TA 100 +S9: 58.3 colonies per plate
  Mean number of revertant colonies per plate, TA 100 -S9: 28.0 colonies per plate
  Mean number of revertant colonies per plate, TA 1535 +S9: 15.3 colonies per plate
  Mean number of revertant colonies per plate, TA 1535 -S9: 16.3 colonies per plate
  Mean number of revertant colonies per plate, TA 1537 +S9: 13.7 colonies per plate
  Mean number of revertant colonies per plate, TA 1537 -S9: 9.7 colonies per plate
  Mean number of revertant colonies per plate, TA 1538 +S9: 26.0 colonies per plate
  Mean number of revertant colonies per plate, TA 1538 -S9: 13.3 colonies per plate
  Mean number of revertant colonies per plate, TA 1978 +S9: 196.0 colonies per plate
  Mean number of revertant colonies per plate, TA 1978 -S9: 209.7 colonies per plate
  mutagenicity: not mutagenic
H. virescens
  effect on larval development time, pupal weight or time to adult emergence: little effect
[2]; 500 μg/larva (400 ppm)
  larvae killed: 80%
[2]; 250 ppm topical
  developmental effects: increased larval developmental time, reduced maximum weight and fewer numbers of eggs
[2]; Manduca sexta, 250 ppm topical, read-out: larval mortality
  mortality at 250 ppm, 250 µg/g: 30%
[2]; topical
  topical activity against the tobacco hornworm (comparison in words): less active than Compound 13
[3]; 1 mM in diet
  % Adult Emergence: 100%
  % Adults: 100%
  % Malformed Adults: 7%
  % Pupation: 100%
  Days to Max Wt: 5.9 ± .1 days
  Max Larval Wt: 8.29 g
  Mean No. of Eggs: 74 ± 22
  No. of female Adults: 4
  Total No. of Adults: 14
  larval weight: a slight reduction in larval weight
[3]; 2.5 mM in diet
  % Adult Emergence: 100%
  % Adults: 60%
  % Malformed Adults: 0%
  % Pupation: 60%
  Days to Max Wt: 7.7 ± 0.6 days
  Max Larval Wt: 6.77 g
  Mean No. of Eggs: 15 ± 7
  No. of female Adults: 7
  Total No. of Adults: 9
  maximum larval weight and mean number of eggs: reduced maximum larval weight and the mean number of eggs
  percent pupation: lowered the percent pupation
[3]; 5 mM in diet
  larval death (words in table): ALL DEAD WITHIN 24 HR OF START OF TEST
  larval mortality: all or nearly all larvae died
  symptoms of larvae: extreme agitation of larvae, oral and anal expulsion of fluids and ultimately, death
  time until all larvae dead: ≤ 24 h
[3]
  oral activity: good oral activity
  larval mortality (acute toxicity): 100%
  time to 100% larval mortality: 24 to 72 h

## CC1CN1P(=O)(N1CC1C)N1CC1C (centres unmarked) [metepa, tris(2-methyl-1-aziridinyl)phosphine oxide]
mammals
  toxicity reported in the literature: carcinogenic and mutagenic properties

## Fc1ccc(N2CC2c2ccccc2F)cc1 (centres unmarked) [Compound 15]
H. virescens larvae; 62.5 μg/larva or 625 ppm topical, 100 mg larvae
  larvae killed: 60%
H. virescens larvae; 312 ppm topical
  larvae killed: 40%
[2]; 125 μg/larvae
  size of surviving larvae: smaller than controls
[2]; Manduca sexta, topical, 125 μg/larvae, during the entire 5th instar
  mortality at 125 µg/larva: 20%
[2]; Manduca sexta, topical, 250 μg/larva, within 24 hr
  mortality at 250 µg/larva: 100%
[3]; 5 mM in diet
  % Adult Emergence: 60%
  % Malformed Adults: 0%
  % Pupation: 67%
  Days to Max Wt: 6.7 ± .4 days
  Max Larval Wt: 8.04 ± .41 g
  Mean No. of Eggs: 67 ± 42
  No. of female Adults: 3
[3]; 5 mM in diet, all tests began with 15 larvae
  Total No. of Adults: 9

## O=P(N1CC1)(N1CC1)N1CC1 [tepa, tris(1-aziridinyl)-phosphine oxide]
mammals
  toxicity reported in the literature: carcinogenic and mutagenic properties

## Clc1ccccc1C1CN1c1ccc(Br)cc1 (centres unmarked) [Compound 1]
[1]
  Mean number of revertant colonies per plate, TA 98 +S9: 44.0 colonies per plate
  Mean number of revertant colonies per plate, TA 98 -S9: 32.7 colonies per plate
  Mean number of revertant colonies per plate, TA 100 +S9: 61.7 colonies per plate
  Mean number of revertant colonies per plate, TA 100 -S9: 25.3 colonies per plate
  Mean number of revertant colonies per plate, TA 1535 +S9: 15.0 colonies per plate
  Mean number of revertant colonies per plate, TA 1535 -S9: 17.3 colonies per plate
  Mean number of revertant colonies per plate, TA 1537 +S9: 13.3 colonies per plate
  Mean number of revertant colonies per plate, TA 1537 -S9: 7.5 colonies per plate
  Mean number of revertant colonies per plate, TA 1538 +S9: 26.7 colonies per plate
  Mean number of revertant colonies per plate, TA 1538 -S9: 12.0 colonies per plate
  Mean number of revertant colonies per plate, TA 1978 +S9: 189.0 colonies per plate
  Mean number of revertant colonies per plate, TA 1978 -S9: 207.3 colonies per plate
  mutagenicity: not mutagenic
H. virescens
  effect on larval development time, pupal weight or time to adult emergence: little effect
[2]; 1000 μg/larva (800 ppm)
  larvae killed: 70%
[2]; 400 ppm topical
  developmental effects: delayed larval development, reduced maximum size and the number of resulting eggs
[3]; 1 mM in diet
  % Adult Emergence: 100%
  % Adults: 100%
  % Malformed Adults: 0%
  % Pupation: 100%
  Days to Max Wt: 5.8 ± .2 days
  Max Larval Wt: 7.94 g
  Mean No. of Eggs: 32 ± 9
  No. of female Adults: 10
  Total No. of Adults: 15
  larval weight: a slight reduction in larval weight
[3]; 1 mM in diet, relative to controls
  mean number of eggs: only half that of the controls
[3]; 2.5 mM in diet
  % Adult Emergence: 100%
  % Adults: 27%
  % Malformed Adults: 50%
  % Pupation: 27%
  Days to Max Wt: 6.2 ± 0.7 days
  Max Larval Wt: 4.99 g
  Mean No. of Eggs: 8 ± 9
  No. of female Adults: 2
  Total No. of Adults: 4
  malformed adults: a large percentage
  maximum larval weight and mean number of eggs: reduced maximum larval weight and the mean number of eggs
  percent pupation: lowered the percent pupation
[3]; 5 mM in diet
  larval death (words in table): ALL DEAD BY SECOND DAY OF FEEDING
  larval mortality: all or nearly all larvae died
  symptoms of larvae: extreme agitation of larvae, oral and anal expulsion of fluids and ultimately, death
  time until all larvae dead: ≥ 48 h
[3]
  oral activity: good oral activity
  larval mortality (acute toxicity): 100%
  time to 100% larval mortality: 24 to 72 h
